Key:
sympathetic SCG neurons = assay: NGF deprivation-induced apoptosis of superior cervical ganglia sympathetic neurons, Annexin V; assay type: cell-based, rat; settings: 100 nM DHEA, medium lacking NGF with anti-NGF antiserum
Procedure: Cells were plated on collagen coated 24-well plates and cultured for 5 d prior to use.

[1] = molecular target: T1, p75^NTR with effectors TRAF6, RIP2, RhoGDI (Rattus norvegicus, UniProt P07174); assay: Co-immunoprecipitation of p75NTR with effectors TRAF6, RIP2, RhoGDI in co-transfected HEK293 cells; assay type: cell-based; settings: co-transfected HEK293, 30 min; 100 nM DHEA, 100 ng/ml NGF
T1 construct: expressed in transfected cells; host or cells: HEK293
T1 sequence (P07174 30-425): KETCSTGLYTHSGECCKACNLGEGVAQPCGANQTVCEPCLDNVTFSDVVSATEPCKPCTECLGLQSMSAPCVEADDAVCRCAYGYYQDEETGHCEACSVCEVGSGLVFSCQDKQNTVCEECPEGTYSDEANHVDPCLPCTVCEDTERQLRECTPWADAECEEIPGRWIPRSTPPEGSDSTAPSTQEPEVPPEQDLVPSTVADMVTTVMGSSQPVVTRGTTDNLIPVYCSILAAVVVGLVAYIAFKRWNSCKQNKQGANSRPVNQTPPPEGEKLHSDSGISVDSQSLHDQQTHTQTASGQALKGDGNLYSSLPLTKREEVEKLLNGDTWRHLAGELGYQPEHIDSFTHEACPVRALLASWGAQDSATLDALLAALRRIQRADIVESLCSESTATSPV
Procedure: (§1) HEK293 cells were transfected with the appropriate plasmids (TrkA, p75^NTR, RIP2, TRAF-6, and RhoGDI) by using Lipofectamine 2000 (Invitrogen). Cells were harvested 48 h after transfection and suspended in lysis buffer (50 mM Tris-HCl, 0.15 M NaCl, 1% Triton-X100, pH 7.4) supplemented with protease inhibitors. Lysates were precleared for 1 h with Protein A-Sepharose beads (Amersham) and immunoprecipitated with the appropriate antibody (pTyr, Flag, or c-myc) overnight at 4°C. Protein A Sepharose beads were incubated with the lysates for 4 h at 4°C with gentle shaking. […] Beads were collected by centrifugation, washed four times with lysis buffer, and resuspended in SDS loading buffer. Proteins were separated by SDS/PAGE, followed by immunoblotting with specific antibodies.

TrkA [2] = molecular target: T2, TrkA (Rattus norvegicus, UniProt P35739); assay: [3H]-DHEA saturation binding to membranes of HEK293 cells transfected with TrkA cDNA; design: expressed in transfected cells; host or cells: HEK293; settings: KD of [3H]-DHEA binding (Scatchard analysis), n = 3
T2 sequence (P35739 33-799): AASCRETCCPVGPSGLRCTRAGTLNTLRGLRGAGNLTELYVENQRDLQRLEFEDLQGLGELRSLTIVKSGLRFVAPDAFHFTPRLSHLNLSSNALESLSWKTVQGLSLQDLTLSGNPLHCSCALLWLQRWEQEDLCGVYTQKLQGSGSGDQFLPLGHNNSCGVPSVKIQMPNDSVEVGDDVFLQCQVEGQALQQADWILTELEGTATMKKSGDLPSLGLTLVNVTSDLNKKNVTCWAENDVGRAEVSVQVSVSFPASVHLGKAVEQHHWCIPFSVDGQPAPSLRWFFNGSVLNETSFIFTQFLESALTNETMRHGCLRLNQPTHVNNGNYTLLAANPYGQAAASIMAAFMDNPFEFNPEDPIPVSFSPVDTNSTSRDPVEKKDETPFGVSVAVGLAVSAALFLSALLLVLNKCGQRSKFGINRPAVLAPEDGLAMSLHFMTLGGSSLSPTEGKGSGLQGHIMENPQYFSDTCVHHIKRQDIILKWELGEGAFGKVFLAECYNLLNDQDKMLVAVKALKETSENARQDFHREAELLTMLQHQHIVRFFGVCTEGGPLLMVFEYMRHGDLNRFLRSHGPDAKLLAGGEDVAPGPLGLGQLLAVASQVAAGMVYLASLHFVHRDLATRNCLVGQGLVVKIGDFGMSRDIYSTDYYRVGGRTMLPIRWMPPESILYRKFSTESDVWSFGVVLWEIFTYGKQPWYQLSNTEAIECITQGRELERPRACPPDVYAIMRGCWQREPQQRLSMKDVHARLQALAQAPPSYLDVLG

TrkA [3] = molecular target: T2, TrkA; assay: [125I]-NGF displacement, HEK293^TrkA cell membranes; assay type: binding; design: expressed in transfected cells; host or cells: HEK293; settings: unpublished data
TrkA [4] = molecular target: T2, TrkA; assay: Tyr490 TrkA phosphorylation in naive PC12 cells (Western blot); assay type: cell-based; design: PC12 cells, endogenously expressing TrkA receptors; endogenous in cells; host or cells: PC12; settings: 10 min, DHEA 100 nM, NGF 100 ng/ml
Procedure: (§2) PC12 or HEK293 cells lysates were electrophoresed through a 12% SDS-polyacrylamide gel, and then proteins were transferred to nitrocellulose membranes, which were processed according to standard Western blotting procedures, as previously described. To detect protein levels, membranes were incubated with the appropriate antibodies: Bcl-2 (dilution 1∶500), phospho TrkA (dilution 1∶500), total TrkA (dilution1∶500), p75^NTR (dilution 1∶500), phospho Shc (dilution 1∶1000), total Shc (dilution 1∶1000), phospho Akt (dilution 1∶500), total Akt (dilution 1∶500), phospho ERK1/2 (dilution 1∶500), and total ERK1/2 (dilution 1∶500). Proteins were visualized using the ECL Western blotting kit (ECL Amersham Biosciences, UK), and blots were exposed to Kodak X-Omat AR films. A PC-based Image Analysis program was used to quantify the intensity of each band (Image Analysis, Inc., Ontario, Canada).
(§3) To normalize for protein content the blots were stripped and stained with GAPDH antibody (dilution 1∶1000); the concentration of each target protein was normalized versus GAPDH. Where phosphorylation of TrkA or kinases was measured, membranes were first probed for the phosphorylated form of the protein, then stripped, and probed for the total protein.

PC12 cells = assay: Apoptosis of serum deprived PC12 cells, FACS Annexin V-FITC and PI; assay type: cell-based; settings: serum free, 100 nM, 24 h, n = 8; serum free control 53.5%±17.6%
Procedure: (§4) PC12 cells were cultured in 12-well plates, and 24 h later they were transfected with the si/shRNAs for TrkA and/or p75^NTR. […] Apoptosis was quantified 24 h later with annexin V-FITC and PI (BD Pharmingen) according to our protocol.

[5] = tested on: TrkA positive sensory neurons of dorsal root ganglia; assay: Apoptotic loss of sensory neurons in dorsal root ganglia of NGF null mouse embryos; settings: ngf−/− embryos at E14, mothers treated daily with DHEA 2 mg
Procedure: ngf+/− mice [13] were obtained from the Jackson Laboratory and maintained on C57BL/6 background. […] Animals were housed in cages maintained under a constant 12 h light–dark cycle at 21–23°C, with free access to food and tap water.
Mice heterozygous for the NGF null mutation were interbred to obtain mice homozygous for the NGF gene disruption and the first day of gestation determined by the discovery of a copulation plug. The mothers were treated daily with a subcutaneous injection of DHEA (2 mg/day) or vehicle (4.5% ethanol in 0.9% saline) starting from the third day after gestation. Animals were collected at E14. At the day of collection the mothers were deeply anesthetized with sodium pentobarbital (Dolethal 0.7 ml/kg i.p.) followed by transcardial perfusion with saline solution containing heparin for about 7 min, and with 4% PFA, 15% Picric Acid, 0.05% GA in phosphate buffer 0.1 M, for another 7 min. After the perfusion the embryos were collected and maintained in the same fixative overnight at 4°C. Embryos were then washed in 0.1 M phosphate buffer and cryoprotected by using 10% sucrose followed by 20% sucrose overnight at 4°C. Finally, embryos were frozen in OCT in iso-pentane over liquid nitrogen for 5 min and the frozen tissues were stored for later use at −80°C. The samples were sectioned (20 µm) and mounted onto Superfrost plus slides (Menzel-Glaser J1800AMNZ). Slides were left to air-dry overnight at room temperature (RT) and were then either used immediately or were fixed in cold acetone for 1 min and stored at −80°C for later use.
Stored or fresh slides were fixed for 15 min in cold acetone at 4°C and left to dry for 10 min at room temperature. They were then washed in PB 0.1 M, then in TBS, and incubated for 45 min with 10% horse serum in TBS-T 0.1%. […] Sections were incubated for 4 h at RT and overnight at 4°C; they were then washed in TBS-T 0.1% and the anti-rabbit secondary antibodies (Alexa Fluor 488 and Alexa Fluor 546, 1∶1000 in TBS-T 0.1%) were added for 6 h at RT. […]

[6] = tested on: Shc, ERK1/2, and Akt kinases; assay: Phosphorylation of Shc, ERK1/2 and Akt kinases in PC12 cells (Western blot); assay type: cell-based; settings: serum deprived naive PC12 cells, 10 min; 100 nM DHEA, 100 ng/ml NGF
Procedure: as §2, §3

p75^NTR [7] = molecular target: T3, p75^NTR (Rattus norvegicus, UniProt P07174); assay: [3H]-DHEA saturation binding to membranes of HEK293 cells transfected with p75NTR cDNA; settings: KD of [3H]-DHEA binding (Scatchard analysis), n = 3
T3 construct: expressed in transfected cells; host or cells: HEK293
T3 sequence (P07174 30-425): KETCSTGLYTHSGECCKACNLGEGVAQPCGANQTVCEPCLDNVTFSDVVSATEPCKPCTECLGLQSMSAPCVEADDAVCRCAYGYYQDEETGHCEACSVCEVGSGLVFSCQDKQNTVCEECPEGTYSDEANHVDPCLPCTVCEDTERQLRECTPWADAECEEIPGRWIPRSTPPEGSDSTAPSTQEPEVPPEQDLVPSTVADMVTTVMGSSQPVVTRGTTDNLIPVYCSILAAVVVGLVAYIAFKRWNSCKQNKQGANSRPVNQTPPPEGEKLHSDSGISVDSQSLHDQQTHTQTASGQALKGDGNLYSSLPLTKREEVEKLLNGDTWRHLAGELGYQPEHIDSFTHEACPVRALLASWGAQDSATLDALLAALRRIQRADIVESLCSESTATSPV

p75^NTR [8] = molecular target: T3, p75^NTR; assay: [125I]-NGF displacement, HEK293^p75NTR cell membranes; assay type: binding; settings: unpublished data
TrkA [9] = molecular target: T2, TrkA; assay: TrkA phosphorylation in HEK293^TrkA transfectants (anti-tyrosine IP, Western blot); assay type: cell-based; design: expressed in transfected cells; host or cells: HEK293; settings: 10 min (and 20 min), steroids 100 nM, NGF 100 ng/ml
Procedure: as §1, §2, §3

p75^NTR [10] = assay: p75NTR protein levels in serum deprived PC12 cells (immunoblotting); assay type: cell-based; settings: serum deprived PC12, between 24 and 48 h; 100 nM DHEA, 100 ng/ml NGF; n = 5, p<0.01
Procedure: as §2, §3

PC12 cell membranes = assay: [3H]-DHEA saturation binding to PC12 cell membranes; settings: membranes from PC12 cells transfected with siRNA against GAPDH; listed as [^3H]-DHEA; read-out: KD of [3H]-DHEA binding (Scatchard analysis)
nnr5 cells = assay: Apoptosis of nnr5 cells (PC12 clone expressing only p75NTR); assay type: cell-based; settings: DHEA 100 nM, NGF 100 ng/ml
Procedure: PC12 cells were obtained from LGC Promochem (LGC Standards GmbH, Germany) and nnr5 cells from Dr. C.F. Ibáñez (Karolinska Institute). Both cell types were grown in RPMI 1640 containing 2 mM L-glutamine, 15 mM HEPES, 100 units/ml penicillin, 0.1 mg/ml streptomycin, and 10% horse serum, 5% fetal calf serum (both charcoal-stripped for removing endogenous steroids) at 5% CO2 and 37°C. HEK-293 cells were obtained from LGC Promochem. Cells were grown in DMEM medium containing 10% fetal bovine serum (charcoal-stripped for removing endogenous steroids), 100 units/ml penicillin, and 0.1 mg/ml streptomycin, at 5% CO2 and […]. HEK-293 and PC12 cells were transfected with Lipofectamine 2000 (InVitrogen) according to manufacturer's instructions. Transfected cells were typically used on the 2nd day after transfection.
as §4

TrkA [11] = assay: TrkA protein levels in serum deprived PC12 cells (immunoblotting); assay type: cell-based; settings: serum deprived PC12, 12 to 48 h; 100 nM DHEA, 100 ng/ml NGF; n = 5, p<0.01
Procedure: as §2, §3

p75NTR (Homo sapiens) = p75NTR (Homo sapiens) (UniProt P08138); settings: cited from earlier work
p75NTR (Homo sapiens), sequence (P08138 29-250): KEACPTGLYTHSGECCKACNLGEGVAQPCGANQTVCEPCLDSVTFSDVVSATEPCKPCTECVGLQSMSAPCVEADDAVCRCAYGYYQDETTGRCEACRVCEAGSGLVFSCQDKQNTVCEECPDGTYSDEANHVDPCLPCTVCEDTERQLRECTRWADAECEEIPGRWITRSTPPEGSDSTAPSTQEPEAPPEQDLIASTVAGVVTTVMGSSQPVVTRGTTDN

TrkA receptor = settings: extracellular and cytoplasmic juxtamembrane domains of TrkA; read-out: Kd of binding to TrkA receptor; cited from earlier work

NGF, sequence (P01138 122-241): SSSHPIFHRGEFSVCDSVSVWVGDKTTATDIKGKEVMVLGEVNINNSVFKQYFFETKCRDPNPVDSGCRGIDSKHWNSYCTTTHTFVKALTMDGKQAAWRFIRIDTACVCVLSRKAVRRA

Compound: C[C@]12CC[C@H](O)CC1=CC[C@@H]1[C@@H]2CC[C@]2(C)C(=O)CC[C@@H]12 [DHEA, dehydroepiandrosterone]
- effect on apoptotic sympathetic neurons after NGF withdrawal (sympathetic SCG neurons): effectively compensated for NGF by decreasing the levels of apoptotic neurons
- association of p75NTR with effectors TRAF6 and RIP2 [1]: efficiently induced the association
- dissociation of RhoGDI from p75NTR receptors [1]: facilitating the dissociation
- Kd (TrkA [2]; 25°C for 30 min): 7.4 ± 1.75 nM
- Kd (TrkA [2]; overnight incubation at 4°C): 7.8 ± 3.1 nM
- displacement of [125I]-NGF binding (in words) (TrkA [3]): unable to effectively displace
- phosphorylation of TrkA (Tyr490) (TrkA [4]): strongly induced
- increase of apoptosis (% of difference from serum supplemented cells) (PC12 cells): 6%±1.4%
- Fluoro Jade C and Caspase 3 positive neurons in the DRG [5]: significantly reduced
- TUNEL-positive apoptotic neurons in the DRG [5]: decreased to levels shown in ngf+/− embryos
- TrkA positive staining in the DRG [5]: significant increase
- phosphorylation of Shc, ERK1/2, and Akt kinases [6]: strongly increased
- Kd (p75^NTR [7]; 25°C for 30 min): 5.6 ± 0.55 nM
- Kd (p75^NTR [7]; overnight incubation at 4°C): 5.9 ± 1.7 nM
- displacement of [125I]-NGF binding (in words) (p75^NTR [8]): unable to effectively displace
- phosphorylation of TrkA (TrkA [9]): strongly increased
- p75NTR receptor levels (p75^NTR [10]): significantly decreased
- Kd (PC12 cell membranes): 1.07 ± 0.43 nM
- effect on apoptosis of nnr5 cells (nnr5 cells): induced apoptosis
- TrkA receptor levels (TrkA [11]): significantly increased

Compound: NGF (from UniProt P01138)
- Kd (p75NTR (Homo sapiens)): 1 nM

Compound: CN(C)CCC=C1c2ccccc2CCc2ccccc21 [amitriptyline]
- Kd (TrkA receptor): 3000 nM

Compound: CC(C)=CCC[C@]1(C)C=Cc2c(O)c3c(c(CC=C(C)C)c2O1)O[C@]12C(=C[C@@H]4CC1C(C)(C)O[C@@]2(C/C=C(/C)C(N)=O)C4=O)C3=O [gambogic amide]
- Kd (TrkA receptor): 75 nM

Reference: paper PMC3082517 (PLoS Biology, 2011)
